Patent EP0074411B1, “ASCORBIC ACID DERIVATIVES” (SANTEN PHARMACEUTICAL CO., LTD., priority 1981, dated 1982)

System: ddY-SPF strain male mouse
Test: Acute toxicity test
Type: in vivo
Settings: ddY-SPF strain male mouse (weight: 25 to 30 g); administered orally as 0.5% tragacanth suspension
Protocol: Acute toxicity test • Acute toxicity of 3,6-0,0' - dipivaloyl - L - ascorbic acid of this invention is shown below. • Animal: ddY-SPF strain male mouse (weight: 25 to 30 g) • Method of administration: The compound is administered orally as 0.5% tragacanth suspension. • Acute toxicity: LDso 5000 mg/kg.

## CC(C)(C)C(=O)OC[C@H](O)[C@H]1OC(=O)C(O)=C1OC(=O)C(C)(C)C [3,6-0,0'-Dipivaloyl-L-ascorbic acid]
  Acute toxicity: LDso: 5000 mg/kg
